Values of other authors as cited in US20040259844A1 (priority 2000, published 2004).

Test system: retinal ganglion cells

CN1[C@@H]2CC[C@H]1C[C@@H](OC(=O)C(CO)c1ccccc1)C2 (stereo partly shown) [atropine]
effect on veratridine-increased survival of retinal ganglion cells: blocked
